Experimental data: patent US20210253718A1, “FRIZZLED5 PROTEIN-BINDING AGENTS” (Modmab Therapeutics Corporation, priority 2016, published 2021)

Columns and labels:
FZD7 CRD = target: T1, FZD7 CRD (Homo sapiens, UniProt O75084); test: Immunofluorescence of anti-FZD5 Fab binding to CHO cells overexpressing Frizzled CRD; set-up: key: −: no binding; +: very weak binder; ++: weak binder; +++: good binder; ++++: very good binder
T1 construct: D45-S169; GPI anchor signal (C); expressed in transfected cells; host or cells: CHO cells, lentiviral pLenti-puro
Description: (§1) Plasmids: pLCKO lentiviral vector used for knockout (TKO) library construction and expression of individual gRNAs was constructed as described previously (Hart et al., 2015). Briefly, single guide RNA (sgRNA) scaffold was amplified from px330 (Addgene 42230) and cloned into pLKO.TRC005 lentiviral vector (Broad Institute, Cambridge, Mass.) using AgeI/EcoRI restriction sites. BfuAI sites were added at the 5′ end of the sgRNA scaffold for cloning the TKO library or individual gRNA target sequences. Lenti Cas9-2A-BsdR vector used to generate Cas9 stable expression cell lines was constructed as described previously (Hart et al., 2015). Briefly, lentiCRISPR pXPR_001 (Addgene 49535) was modified through removal of the sgRNA scaffold region through NdeI/EcoRI digest and blunt ends generation using Large Klenow Fragment (NEB). 2A-puro was replaced with 2A-BsdR by PCR using the NheI/MluI sites. Each of the 10 human Frizzled cysteine rich domains (CRDs) were cloned into the lentiviral expression plasmid pLenti-puro in the following cassette: FZD_CRD-MYC-GPI.
(§2) To confirm that the FZD5-WNT7B circuit is not driven simply by expression and rule out the possibility of a disconnect between RNA and protein levels for the Wnt receptors in HPAF-II cells, a panel of recombinant Fabs were generated, alternatively referred to herein as ‘Frizzled profiler’, that can detect and discriminate all but one of the ten Frizzled receptors. […] To characterize the binding specificity of these Fabs on cells, a panel of 10 CHO cell lines was generated, each expressing the CRD domain of a different myc-tagged Frizzled family member anchored at the plasma membrane through a GPI anchor (CHO-myc-FZDGPI). Despite the high sequence identity between Frizzled family members (FIG. 7A, FIG. 7B), selective Fabs were identified for FZD4, FZD5, FZD6 and FZD10 as assessed by immunofluorescence and flow cytometry (FIG. 7D and FIG. 8). […] The FZD8 CRD is most homologous to that of FZD5 (FIG. 7B). These Fabs can be used to discriminate expression of FZD1, FZD2, FZD4, FZD5, FZD6, FZD7, FZD8, FZD9 and FZD10 (FIG. 7D and FIG. 8). The ‘Frizzled profiler’ therefore consists of 10 different Fabs that can be used to discriminate expression of 9 different Frizzled family members. The Frizzled profiler was then used to confirm that HPAF-II cells express FZD1, FZD5, FZD6 and possibly FZD8 (FIG. 7E).
(§3) The binding of anti-FZD5 Fabs to cell surface-expressed Frizzled protein was further determined for each member of the Frizzled family via flow cytometry and immunofluorescence analysis of a panel of 10 CHO cell lines, each ectopically over-expressing the extracellular cysteine-rich domain (CRD) of a different Frizzled protein family member.

FZD6 CRD = target: T2, FZD6 CRD (Homo sapiens, UniProt O60353); test: as above; set-up: key: −: no binding; +: very weak binder; ++: weak binder; +++: good binder; ++++: very good binder
T2 construct: S20-P146; GPI anchor signal (C); expressed in transfected cells; host or cells: CHO cells, lentiviral pLenti-puro
T2 sequence (O60353 20-146): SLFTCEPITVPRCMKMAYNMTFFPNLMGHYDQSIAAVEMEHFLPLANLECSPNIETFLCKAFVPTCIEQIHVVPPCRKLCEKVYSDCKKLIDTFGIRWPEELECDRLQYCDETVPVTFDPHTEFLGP
Description: as §1, §2, §3

ASPC-1 cells [1] = test: Effect of anti-FZD5 Fabs on proliferation of pancreatic cancer cell lines (percent growth inhibition); format: cell-based, human; settings: Fab 10 μg/ml
Description: (§4) The effect of presently disclosed anti-FZD5 Fabs on proliferation of RNF43 loss-of-function mutant pancreatic cancer cell lines HPAFII, PATU8988S and ASPC-1; and on pancreatic cancer cell line RWP1, was tested at […] and 10 μg/ml.

HPAFII cells = test: as above; format: cell-based, human
Description: as §4

RWP1 cells [2] = test: as above; format: cell-based, human; settings: Fab 10 μg/ml
Description: as §4

PATU8988S cells = test: as above; format: cell-based, human; settings: Fab 10 μg/ml
Description: as §4

ASPC-1 cells [3] = test: as above; format: cell-based, human; settings: Fab 2 μg/ml
FZD1 CRD = target: T3, FZD1 CRD (Homo sapiens, UniProt Q9UP38); test: Flow cytometry of anti-FZD5 Fab binding to CHO cells overexpressing Frizzled CRD
T3 construct: D112-P238; GPI anchor signal (C); expressed in transfected cells; host or cells: CHO cells, lentiviral pLenti-puro
Description: as §1
(§5) Flow cytometry: Primary staining of cells was performed by treatment with 200 nM Frizzled profiler Fab. Alexa Fluor 488 AffiniPure F(ab′)2 was used as the secondary antibody (Jackson ImmunoResearch #109-546-097). c-Myc (9E10) IgG1 (primary antibody, Santa Cruz, lot #D0306) and Alexa Fluor 488 IgG (secondary antibody, Life technologies, lot #1458649) were used as controls. Dead cells were excluded by staining with Fixable Viability Dye eFluor 660 (eBioscience, catalogue number 65-0864). All reagents were used as per manufacturer's instructions. Flow cytometry was performed on a BD FACSCanto II flow cytometer (BD Biosciences), and data were analyzed with FlowJo software (FlowJo, LLC).
as §2, §3

FZD9 CRD = target: T4, FZD9 CRD (Homo sapiens, UniProt O00144); test: as above
T4 construct: G35-A161; GPI anchor signal (C); expressed in transfected cells; host or cells: CHO cells, lentiviral pLenti-puro
T4 sequence (O00144 35-161): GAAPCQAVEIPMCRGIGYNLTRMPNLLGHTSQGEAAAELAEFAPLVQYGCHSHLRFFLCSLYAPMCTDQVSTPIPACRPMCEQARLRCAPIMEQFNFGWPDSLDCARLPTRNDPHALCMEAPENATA
Description: as §1, §5, §2, §3

FZD5 CRD = target: T5, FZD5 CRD (Homo sapiens, UniProt Q13467); test: as above
T5 construct: K29-T156; GPI anchor signal (C); expressed in transfected cells; host or cells: CHO cells, lentiviral pLenti-puro
T5 sequence (Q13467 29-156): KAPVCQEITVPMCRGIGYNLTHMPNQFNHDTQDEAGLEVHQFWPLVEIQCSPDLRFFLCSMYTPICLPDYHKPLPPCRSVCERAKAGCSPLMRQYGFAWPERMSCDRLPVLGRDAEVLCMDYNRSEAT
Description: as §1, §5, §2, §3

RWP1 cells [4] = test: Effect of anti-FZD5 Fabs on proliferation of pancreatic cancer cell lines (percent growth inhibition); format: cell-based, human; settings: Fab 2 μg/ml

- Immunofluorescence binding, Frizzled CRD overexpressed on CHO cells: FZD7 (FZD7 CRD): +
- Immunofluorescence binding, Frizzled CRD overexpressed on CHO cells: FZD6 (FZD6 CRD): −
- Median fluorescence, Frizzled CRD overexpressed on CHO cells: FZD1 (FZD1 CRD): 10.27
- Median fluorescence, Frizzled CRD overexpressed on CHO cells: FZD9 (FZD9 CRD): 2.76
- Median fluorescence, Frizzled CRD overexpressed on CHO cells: FZD5 (FZD5 CRD): 28.13
Substance: Fab-2931: anti-FZD5 Fab with antibody variable region Fv-2931; CDR SEQ ID NOs: 35, 36, 70, 102, 146, 176 (CDR 1 QSVSSA; CDR 2 SAS; CDR 3 QQSSYSLIT; CDR 4 GFNLSYSS; CDR 5 ISPYSGST; CDR 6 ARGSYWYVGGGWWVSGHGGMDY)
- percent growth inhibition, ASPC-1 10 μg/ml (ASPC-1 cells [1]): 39.20%
- percent growth inhibition, HPAFII 2 μg/ml (HPAFII cells; Fab 2 μg/ml): −19.38%
- percent growth inhibition, HPAFII 10 μg/ml (HPAFII cells; Fab 10 μg/ml): 11.37%
- percent growth inhibition, RWP1 10 μg/ml (RWP1 cells [2]): 18.70%
- percent growth inhibition, PATU8988s 10 μg/ml (PATU8988S cells): −17.27%
- percent growth inhibition, ASPC-1 2 μg/ml (ASPC-1 cells [3]): 10.33%
- percent growth inhibition, RWP1 2 μg/ml (RWP1 cells [4]): 15.35%
